Among the data in article doi:10.1101/2025.09.11.675743v1 (biorxiv, 2025) are Kd and IC50 values, retold here.

In data set [1] the target is T1, recombinant human TREM2 protein (Homo sapiens, UniProt Q9NZC2).
T1 sequence (Q9NZC2 19-174 limits assumed): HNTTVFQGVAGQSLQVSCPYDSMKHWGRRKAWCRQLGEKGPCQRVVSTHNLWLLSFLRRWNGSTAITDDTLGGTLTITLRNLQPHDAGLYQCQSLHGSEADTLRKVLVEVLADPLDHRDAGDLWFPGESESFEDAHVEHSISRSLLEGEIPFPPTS
The experiment in a line: microscale thermophoresis. In kind it is binding.

The next data set concerns the target hERG (Homo sapiens, UniProt Q12809). The experiment in a line: hERG safety counterscreen. In kind it is cell-based. (In general: Block of hERG is tested as a sign of cardiac risk.)

A value given as a limit tells only on which side of the number the result lay.

Chain of hERG (Q12809 whole entry): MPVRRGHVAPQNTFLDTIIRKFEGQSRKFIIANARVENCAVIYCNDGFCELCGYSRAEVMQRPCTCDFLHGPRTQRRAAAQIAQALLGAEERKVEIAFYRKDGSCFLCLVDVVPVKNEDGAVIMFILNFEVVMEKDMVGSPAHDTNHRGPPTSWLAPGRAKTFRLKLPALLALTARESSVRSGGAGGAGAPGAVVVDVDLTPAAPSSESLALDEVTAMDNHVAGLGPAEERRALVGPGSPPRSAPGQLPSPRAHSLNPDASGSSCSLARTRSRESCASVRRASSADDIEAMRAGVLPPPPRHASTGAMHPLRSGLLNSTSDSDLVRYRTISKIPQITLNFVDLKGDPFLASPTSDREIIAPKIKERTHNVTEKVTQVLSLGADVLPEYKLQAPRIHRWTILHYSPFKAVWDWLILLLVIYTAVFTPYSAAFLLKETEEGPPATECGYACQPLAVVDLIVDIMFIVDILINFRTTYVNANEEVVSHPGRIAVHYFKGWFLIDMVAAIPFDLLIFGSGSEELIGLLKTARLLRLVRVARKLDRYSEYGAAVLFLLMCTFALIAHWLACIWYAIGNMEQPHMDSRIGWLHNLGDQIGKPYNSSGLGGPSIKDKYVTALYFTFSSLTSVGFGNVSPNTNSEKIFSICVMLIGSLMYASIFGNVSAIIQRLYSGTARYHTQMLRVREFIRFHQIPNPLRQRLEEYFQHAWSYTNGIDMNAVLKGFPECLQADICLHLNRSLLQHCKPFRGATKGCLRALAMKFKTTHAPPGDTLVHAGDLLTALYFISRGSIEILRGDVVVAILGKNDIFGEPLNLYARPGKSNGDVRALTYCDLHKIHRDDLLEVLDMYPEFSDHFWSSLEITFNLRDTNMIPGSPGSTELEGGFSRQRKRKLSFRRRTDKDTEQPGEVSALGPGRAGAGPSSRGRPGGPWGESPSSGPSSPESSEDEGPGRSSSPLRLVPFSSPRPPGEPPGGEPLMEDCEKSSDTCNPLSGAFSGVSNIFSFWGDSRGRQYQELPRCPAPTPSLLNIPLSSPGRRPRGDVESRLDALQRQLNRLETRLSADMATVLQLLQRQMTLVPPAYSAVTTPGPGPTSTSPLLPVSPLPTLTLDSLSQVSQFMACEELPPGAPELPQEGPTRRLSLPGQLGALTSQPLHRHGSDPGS

In the case of `c1ccc(Nc2nc(-c3c[nH]c4ccccc34)cs2)nc1` [T2K-014], in data set [1], the Kd (commonly the constant that tells how readily two partners part at equilibrium) was determined as 28900 ± 1740 nM.
`c1ccc(CCNc2nc(-c3c[nH]c4ccccc34)cs2)cc1` [T2M-010]: at hERG, the IC50 (usually the point on the concentration scale where inhibition reaches its midpoint) is more than 60000 nM. For the same compound, the Kd in data set [1] came out at 830 ± 100 nM.
Take `c1ccc(Nc2nc(-c3c[nH]c4ccccc34)cs2)cc1` [T2M-002]: in data set [1], the Kd turned out to be 50800 ± 3740 nM.
On the same count and under the same terms, the value for `CNc1nc(-c2c[nH]c3ccccc23)cs1` [T2M-016] was 2440 ± 300 nM; that for `c1ccc2c(-c3csc(NC4CC4)n3)c[nH]c2c1` [T2M-003] was 1350 ± 160 nM.
